Test results: patent publication US20110136867A1, “Treatment of Synucleinopathies” (priority 2006, published 2011)
“Also recorded” adds a separate entry of the source.

Tests used:
[1] = test system: Lewy body-like inclusions; assay: Campbell Switzer silver staining of Lewy body-like inclusions in α-synuclein transgenic mice; format: in vivo; conditions: 35 mg/kg twice a day, 30 days; vs vehicle
Method: (§1) Farnesyl transferase inhibitors Zarnestra and OSI-754 were administered to mice of the α-synuclein transgenic line described in Masliah et al. (Masliah et al. “Dopaminergic loss and inclusion body formation in alpha-synuclein mice: implications for neurodegenerative disorders” Science 287(5456):1265-69, 2000; incorporated herein by reference). Animals from this line have α-synuclein neuronal inclusions in the cortex, hippocampus, and the olfactory bulb (Masliah et al. “Dopaminergic loss and inclusion body formation in alpha-synuclein mice: implications for neurodegenerative disorders” Science 287(5456):1265-69, 2000; incorporated herein by reference). Transgenic mice were orally administered either FTI in 20% cyclodextrin solution or the same volume of vehicle alone twice a day for 30 or 90 days. In some cases, non-transgenic mice also received vehicle twice a day for 30 to 90 days. At the end of treatment, mice were sacrificed, and the brains removed and hemisected. […]
(§2) Formation of α-synuclein inclusions in the cortex and hippocampus was probed by immunostaining with an antibody for human α-synuclein. Cells positive for human α-synuclein were quantified. […] These regions were also analyzed for ubiquitin-immunoreactive inclusions and by the Campbell Switzer method of silver staining. […]

[2] = test system: α-synuclein; assay: Sandwich ELISA of total α-synuclein in brain fractions of α-synuclein transgenic mice; format: in vivo; conditions: 35 mg/kg twice a day, 30 days
Method: (§3) Farnesyl transferase inhibitors Zarnestra and OSI-754 were administered to mice of the α-synuclein transgenic line described in Masliah et al. (Masliah et al. “Dopaminergic loss and inclusion body formation in alpha-synuclein mice: implications for neurodegenerative disorders” Science 287(5456):1265-69, 2000; incorporated herein by reference). Animals from this line have α-synuclein neuronal inclusions in the cortex, hippocampus, and the olfactory bulb (Masliah et al. “Dopaminergic loss and inclusion body formation in alpha-synuclein mice: implications for neurodegenerative disorders” Science 287(5456):1265-69, 2000; incorporated herein by reference). Transgenic mice were orally administered either FTI in 20% cyclodextrin solution or the same volume of vehicle alone twice a day for 30 or 90 days. In some cases, non-transgenic mice also received vehicle twice a day for 30 to 90 days. At the end of treatment, mice were sacrificed, and the brains removed and hemisected. One hemisphere of each was fixed in 4% paraformaldehyde/PBS (pH 7.4), cryoperserved, then sectioned for histology. The other hemisphere was subdivided into four brain regions, including the cortex and hippocampus, that were homogenized and processed into cytoplasmic and membrane fractions.
Total α-synuclein levels were analyzed by a sandwich ELISA assay similar to one previously described (El-Agnaf et al. “Detection of oligomeric forms of alpha-synuclein protein in human plasma as a potential biomarker for Parkinson's disease” FASEB J. 20(3):419-25, 2006; incorporated herein by reference). In the cortex of vehicle treated animals, α-synuclein protein levels in the α-synuclein transgenic line are greater than in non-transgenic mice in both cytoplasmic (FIG. 10) and membrane fractions (FIG. 11).

[3] = test system: α-synuclein; assay: Immunostaining for human α-synuclein in brain sections of α-synuclein transgenic mice; format: in vivo; conditions: 35 mg/kg twice a day orally, 30 days, vs vehicle
Method: as §3
Formation of α-synuclein inclusions in the cortex and hippocampus was probed by immunostaining with an antibody for human α-synuclein. Cells positive for human α-synuclein were quantified. […] These regions were also analyzed for ubiquitin-immunoreactive inclusions and by the Campbell Switzer method of silver staining. Ubiquitin is known to be a constituent of Lewy Bodies and in the α-synculein inclusions found in the transgenic mouse line used in the study (Masliah et al. “Dopaminergic loss and inclusion body formation in alpha-synuclein mice: implications for neurodegenerative disorders” Science 287(5456):1265-69, 2000; incorporated herein by reference). […] Campbell-Switzer staining is a general marker of Lewy Body type inclusions (Uchihara et al. “Silver stainings distinguish Lewy bodies and glial cytoplasmic inclusions: comparison between Gallyas-Braak and Campbell-Switzer methods” Acta Neuropathol. (Berl.) 110(3):255-60, 2005; incorporated herein by reference).

[4] = test system: farnesylated UCH-L1; assay: Quantitative Western Blot of farnesylated UCH-L1 in cortex membrane fraction of α-synuclein transgenic mice; format: in vivo; conditions: 35 mg/kg twice a day, 30 days, 35 mg/kg
Method: Farnesyl transferase inhibitors Zarnestra and OSI-754 were administered to mice of the α-synuclein transgenic line described in Masliah et al. (Masliah et al. “Dopaminergic loss and inclusion body formation in alpha-synuclein mice: implications for neurodegenerative disorders” Science 287(5456):1265-69, 2000; incorporated herein by reference). Animals from this line have α-synuclein neuronal inclusions in the cortex, hippocampus, and the olfactory bulb (Masliah et al. “Dopaminergic loss and inclusion body formation in alpha-synuclein mice: implications for neurodegenerative disorders” Science 287(5456):1265-69, 2000; incorporated herein by reference). Transgenic mice were orally administered either FTI in 20% cyclodextrin solution or the same volume of vehicle alone twice a day for 30 or 90 days. In some cases, non-transgenic mice also received vehicle twice a day for 30 to 90 days. At the end of treatment, mice were sacrificed, and the brains removed and hemisected. One hemisphere of each was fixed in 4% paraformaldehyde/PBS (pH 7.4), cryoperserved, then sectioned for histology. […]
Farnesylated UCH-L1 in the cortex is contained in the membrane fraction. The amount of UCH-L1 was determined by quantitative Western Blot.
Total α-synuclein levels were analyzed by a sandwich ELISA assay. […] The amount of farnesylated UCH-L1 was determined by quantitative Western Blot, then normalized to actin.

[5] = test system: ubiquitin-immunoreactive inclusions; assay: Ubiquitin immunohistochemistry in brain of α-synuclein transgenic mice; format: in vivo; conditions: 35 mg/kg twice a day, 30 days; vs vehicle
Method: as §1, §2

[6] = test system: α-synuclein; assay: α-synuclein degradation assay in transfected COS-7 cells (quantitative Western blotting); format: cell-based; conditions: transfected COS-7 cells, 35 μM lactacystin, 24 hours
Excerpt: Plasmids: C220S cDNA was generated by PCR site-specific mutagenesis. For the PCR, the 5′ primer is uchforw SEQ ID NO: 1 ([…]), and 3′ primer is uchc220s SEQ ID NO:2 (CTAAGA […]). Wt UCH-L1 served as the template. The PCR fragment was inserted into pcDNA vector. For S18YC220S mutant, S18Y UCH-L1 served as the template in PCR. For the FLAG tagged UCH-L1, the 5′ primer is FLAGuchforw SEQ ID NO: 3 ([…] CGATGGAG), and the 3′ primer is uchrev SEQ ID NO: 4 ([…]). Wt UCH-L1 or C220S served as the template. PCR fragment was purified and inserted into pcDNA vector. For the FLAG tagged UCH-L3, the 5′ primer is L3HindIII SEQ ID NO: 5 (CTAAAGCTTATGGACTAC […]), the 3′primer is L3XhoISAA SEQ ID NO: 6 ([…]). […] After 24 hours of incubation, the cells were lysed with Tris buffer (50 mM Tris, 2% SDS, 0.1% NP-40), and subjected to SDS-PAGE, followed by quantitative Western blotting.
Western Blotting: Following transfer of SDS gels onto NC membrane, all membranes were blocked with 5% non-fat milk in TBST (50 mM Tris-HCl pH7.4, 150 mM NaCl, 0.1% Tween 20), and incubated with primary antibody overnight with 1% BSA in TBST, washed three times with TBST, and incubated with horseradish peroxidase-conjugated secondary antibody for 1 hour (Promega). Bound antibodies were detected using enhanced chemiluminascence (NEM). […]

[7] = cortex, vs vehicle-treated transgenic mice

Cn1cncc1C(N)(c1ccc(Cl)cc1)c1ccc2c(c1)c(-c1cccc(Cl)c1)cc(=O)n2C (stereo not drawn) [Zarnestra]
inclusions by Campbell-Switzer staining [1]: fewer inclusions | levels of α-synuclein protein in the cortex [2]: decreased levels of α-synuclein protein | α-synuclein protein levels, cytoplasmic fraction [2, 7]: lower α-synuclein protein levels | α-synuclein protein levels, membrane fraction [2, 7]: lower α-synuclein protein levels | α-synuclein-positive cells per mm^2 ([3]; cortex): significantly fewer | α-synuclein-positive cells per mm^2 ([3]; hippocampus): significantly fewer | amount of farnesylated UCH-L1 [4]: decreased; also recorded: decreased the amount of farnesylated UCH-L1 in transgenic mice to levels similar to non-transgenic mice | ubiquitin-immunoreactive inclusions [5]: fewer ubiquitin-immunoreactive inclusions

CC(=O)N[C@@H](CSC(=O)[C@]1([C@@H](O)C(C)C)NC(=O)[C@H](C)[C@@H]1O)C(=O)O [lactacystin]
accumulation of α-synuclein (16 KDa, normalized against actin) [6]: 100%
